On the set-up of data set [1]: method as in PMID 18288656, PMID 18288656, PMID 24604234. The note with it: rats; ref 12a, 12b, 14; cited from earlier work.
The target of data set [2] is T1, steroid sulfatase (STS) (Homo sapiens, UniProt P08842).
T1 sequence (P08842 22-583): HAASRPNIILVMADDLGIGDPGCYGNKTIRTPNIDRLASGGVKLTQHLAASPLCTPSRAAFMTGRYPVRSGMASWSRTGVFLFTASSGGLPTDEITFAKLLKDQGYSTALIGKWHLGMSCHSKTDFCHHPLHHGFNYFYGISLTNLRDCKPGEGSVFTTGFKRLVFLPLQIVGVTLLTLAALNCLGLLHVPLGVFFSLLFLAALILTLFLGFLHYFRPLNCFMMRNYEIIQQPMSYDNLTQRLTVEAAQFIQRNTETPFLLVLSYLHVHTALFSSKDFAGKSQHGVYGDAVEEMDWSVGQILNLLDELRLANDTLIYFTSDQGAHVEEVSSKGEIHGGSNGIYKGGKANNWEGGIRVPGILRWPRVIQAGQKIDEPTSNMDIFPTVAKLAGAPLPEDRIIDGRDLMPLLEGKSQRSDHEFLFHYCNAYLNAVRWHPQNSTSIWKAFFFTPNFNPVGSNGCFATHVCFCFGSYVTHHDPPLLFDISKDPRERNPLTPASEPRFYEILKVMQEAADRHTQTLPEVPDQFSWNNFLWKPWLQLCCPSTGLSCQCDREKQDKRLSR
Further details: a placental microsomal preparation from a sulfatase-positive human placenta from a normal term pregnancy; from tissue; host or cells: human placenta (microsomal preparation). Conditions: cited from earlier work; for % Inhibition of STS Activity in Placental Microsomes at 0.1 μM: 0.1 μM inhibitor; for % Inhibition of STS Activity in Placental Microsomes at 1 μM: 1 μM inhibitor; for % Inhibition of STS Activity in Placental Microsomes at 10 μM: 10 μM inhibitor.

The conditions of data set [3]: rodent; cited from earlier work.
The target of data set [4] is T1, steroid sulfatase (STS). Set-up: endogenous in cells; host or cells: MCF-7 breast cancer cells. Conditions: cited from earlier work.
Data set [5] deals with T1, steroid sulfatase (STS). Description: STS inhibition in intact MCF-7 breast cancer cells. The data set is classed as cell-based. Further details: endogenous in cells; host or cells: MCF-7 breast cancer cells. The note with it: for IC50: 3 nM E1S; for inhibition at 0.01 µM: MCF7, read-out: % Inhibition of STS Activity in Intact MCF-7 Breast Cancer Cells at 0.01 μM; for inhibition at 0.1 µM: MCF7, read-out: % Inhibition of STS Activity in Intact MCF-7 Breast Cancer Cells at 0.1 μM; for inhibition at 1 µM: MCF7, read-out: % Inhibition of STS Activity in Intact MCF-7 Breast Cancer Cells at 1 μM; for inhibition at 10 µM: MCF7, read-out: % Inhibition of STS Activity in Intact MCF-7 Breast Cancer Cells at 10 μM.

Data set [6] concerns the target T1, steroid sulfatase (STS). The data set is described as follows: STS inhibition in placental microsomes. It counts as biochemical. Further details: a placental microsomal preparation from a sulfatase-positive human placenta from a normal term pregnancy; from tissue; host or cells: human placenta (microsomal preparation). Conditions: 20 μM E1S; for inhibition at 0.01 µM: 0.01 μM inhibitor; for inhibition at 0.1 µM: 0.1 μM inhibitor; for inhibition at 1 µM: 1 μM inhibitor; for inhibition at 10 µM: 10 μM inhibitor.

On to `C[C@]12CC[C@@H]3c4ccc(OS(N)(=O)=O)cc4CC[C@H]3[C@@H]1CCC2=O` [compound 1, estrone-3-O-sulfamate], for which the estrogenicity result in data set [1] was “highly estrogenic”.

Turning to `CCCc1cc(=O)oc2cc(OS(N)(=O)=O)ccc12` [compound 5], in data set [2], the “% Inhibition of STS Activity in Placental Microsomes at 0.1 μM” value was 42%, the “% Inhibition of STS Activity in Placental Microsomes at 1 μM” value (“% Inhibition of STS Activity … at 1 μM” for short) is 94% and the “% Inhibition of STS Activity in Placental Microsomes at 10 μM” value (“% Inhibition of STS Activity … at 10 μM” for short) is reported as 96%.

Take `CCc1c(C)c2ccc(OS(N)(=O)=O)cc2oc1=O` [compound 7]: in data set [2], the “% Inhibition of STS Activity in Placental Microsomes at 0.1 μM” value is 57%, the “% Inhibition of STS Activity … at 1 μM” value is recorded as 96% and the “% Inhibition of STS Activity … at 10 μM” value is given as more than 99%.

Regarding `Cc1cc(=O)oc2cc(OS(N)(=O)=O)ccc12` [compound 3, 4-methylcoumarin-7-O-sulfamate], the estrogenic activity entry in data set [3] was “no rodent estrogenic activity”. Moreover, the “% Inhibition of STS Activity in Intact MCF-7 Breast Cancer Cells at 0.01 μM” value in data set [4] (0.01 μM inhibitor) is given as less than 10%. Moreover, in data set [4] (0.1 μM inhibitor), the “% Inhibition of STS Activity in Intact MCF-7 Breast Cancer Cells at 0.1 μM” value was 43%. In data set [2], the “% Inhibition of STS Activity in Placental Microsomes at 0.1 μM” value is less than 10% and the “% Inhibition of STS Activity … at 1 μM” value is listed as 63%.

By IC50 is commonly meant the concentration that gives 50% inhibition. The low end stands for higher potency, the high end for lower potency. A word on the inhibition: it is how much of the control response was suppressed. On to `Cc1c(CCc2ccccc2)c(=O)oc2cc(OS(N)(=O)=O)ccc12` [compound 42, 4-Methyl-3-(2-phenylethyl)coumarin-7-O-sulfamate], for which, in data set [5], the IC50 is 1.1 nM, the inhibition at 0.01 µM worked out at 93%, the inhibition at 0.1 µM was found to be 98% and the inhibition at 1 µM came to 99%. In data set [6], this compound displayed an inhibition at 0.01 µM of 45%, an inhibition at 0.1 µM of 91%, an inhibition at 1 µM of 99% and an inhibition at 10 µM of 100%. In data set [6], this compound registered an IC50 of 33 nM.

Take `CCc1cc(=O)oc2cc(OS(N)(=O)=O)ccc12` [compound 4]: in data set [2], the “% Inhibition of STS Activity in Placental Microsomes at 0.1 μM” value is given as 35%, the “% Inhibition of STS Activity … at 1 μM” value is on record as 88% and the “% Inhibition of STS Activity … at 10 μM” value is recorded as more than 99%.

For the compound `Cc1c(-c2ccccc2)c(=O)oc2cc(OS(N)(=O)=O)ccc12` [compound 40, 4-Methyl-3-phenylcoumarin-7-O-sulfamate], in data set [5], half-maximal inhibition (IC50) was put at 25 nM, the inhibition at 0.01 µM was 32% and the inhibition at 0.1 µM turned out to be 75%. For the same compound, in data set [6], the inhibition at 0.01 µM turned out to be 8%, the inhibition at 0.1 µM stood at 65%, the inhibition at 1 µM turned out to be 95% and 10 µM produced 99% inhibition. Also, the IC50 in data set [6] was 54 nM.

Regarding `CCCCCCc1cc(=O)oc2cc(OS(N)(=O)=O)ccc12` [compound 11, 4-Hexylcoumarin-7-O-sulfamate], in data set [5], the inhibition at 0.1 µM turned out to be 87%, the inhibition at 1 µM was 90% and the inhibition at 10 µM is 93%. In addition, in data set [6], testing at 0.01 µM gave an inhibition of 6%, the inhibition at 0.1 µM was determined as 70%, the inhibition at 1 µM amounted to 97% and the inhibition at 10 µM stood at 99%. The compound also had an IC50 in data set [6] of 52 nM.

As to `CCCCCCCCCc1cc(=O)oc2cc(OS(N)(=O)=O)ccc12` [compound 14, 4-Nonylcoumarin-7-O-sulfamate], in data set [5], the inhibition at 0.01 µM worked out at 90%, the inhibition at 0.1 µM is 96%, the inhibition at 1 µM was determined as 98% and the inhibition at 10 µM was 100%. Also, in data set [6], testing at 0.01 µM gave an inhibition of 18%, the inhibition at 0.1 µM turned out to be 79%, the inhibition at 1 µM is 97% and the inhibition at 10 µM was found to be 99%. In data set [6], this compound registered a half-inhibitory concentration (IC50) of 60 nM.

In the case of `CCCc1c(C)c2ccc(OS(N)(=O)=O)cc2oc1=O` [compound 8], in data set [2], the “% Inhibition of STS Activity in Placental Microsomes at 0.1 μM” value is 83%, the “% Inhibition of STS Activity … at 1 μM” value is on record as 97% and the “% Inhibition of STS Activity … at 10 μM” value is more than 99%.

Take `CCc1ccc(-c2cc(=O)oc3cc(OS(N)(=O)=O)ccc23)cc1` [compound 25, 4-(4-Ethylphenyl)coumarin-7-O-sulfamate]: in data set [5], the half-maximal inhibitory concentration (IC50) stood at 350 nM, the inhibition at 0.01 µM was found to be 6%, the inhibition at 0.1 µM worked out at 24% and the inhibition at 1 µM amounted to 73%. In data set [5], the inhibition at 10 µM is 84%. In data set [6], this compound returned an inhibition at 1 µM of 27%, an inhibition at 10 µM of 85% and a 50% inhibitory concentration (IC50) of 2600 nM.

The values above are taken from publication PMC6173509, “C-3- and C-4-Substituted Bicyclic Coumarin Sulfamates as Potent Steroid Sulfatase Inhibitors” (ACS Omega, 2018).
